Measured values as given in patent publication US9144578B2, “Fixed-dose association of phytate and zinc” (Universitat De Les Illes Balears, priority 2006, dated 2015).
Entries after “also recorded” stand apart in the source; their conditions may differ.

Legend:
[1] = in vitro kinetics of precipitation of hydroxyapatite (Example 1, FIG. 1); settings: [phosphate]=1.5 mM, [Ca^2+]=60 mg/l, pH=7.5
Description: In said FIG. 1 it is shown that the first curve corresponds to direct precipitation without phytate or Zn^2+. The second (Zn^2+) consists of the addition of 0.038 μM of Zn^2+. […] The third curve (Phytate) corresponds to the precipitation of hydroxyapatite in the presence of 0.38 μM of phytate. […] Finally, the last graph (Phytate+Zn^2+) corresponds to the precipitation in the presence of 0.38 μM of phytate and 0.038 μM of Zn^2+ (phytate-Zn molar ratio 10:1).
An in vitro system was designed to study the kinetics of precipitation of hydroxyapatite. A system using the following experimental conditions: [phosphate]=1.5 mM, [Ca^2+]=60 mg/l, pH=7.5, was used. The kinetics of precipitation of the hydroxyapatite was recorded with a Shimadzu (UV-120-02) spectrophotometer using 3 ml plastic vials and recording the absorbance every 5 minutes at 550 nm.

[2] = in vitro kinetics of precipitation of hydroxyapatite (Example 2, FIG. 2); settings: [phosphate]=2.5 mM, [Ca^2+]=60 mg/l, pH=7.5
Description: In said FIG. 2 it is shown that the first series corresponds to the direct precipitation without phytate or Zn^2+. The second consists of the addition of 0.3 μM of Zn^2+. […] The third series corresponds to the precipitation of hydroxyapatite in the presence of 1.5 μM of phytate.
Finally, two series using 1.5 μM phytate and two different concentrations of zinc: Zn^2+: 0.3 μM (phytate-Zn molar ratio 5:1) and 0.15 μM (phytate-Zn molar ratio 10:1), respectively, are shown.
With the same system as in example 1, a system using the following experimental conditions: [phosphate]=2.5 mM, [Ca^2+]=60 mg/l, pH=7.5, was used. The kinetics of precipitation of the hydroxyapatite was recorded with a Shimadzu (UV-120-02) spectrophotometer using 3 ml plastic vials and recording the absorbance every 5 minutes at 550 nm.

In the case of `O=P(O)(O)O[C@H]1[C@H](OP(=O)(O)O)[C@@H](OP(=O)(O)O)[C@H](OP(=O)(O)O)[C@@H](OP(=O)(O)O)[C@H]1OP(=O)(O)O` [Phytate, Myo-inositol hexaphosphate], the “inhibiting effect on precipitation of hydroxyapatite” value (“inhibiting effect on precipitation” below) ([1]; 0.38 μM of phytate) is reported as “significant inhibiting effect” and the “inhibiting effect on precipitation” value ([2]; 1.5 μM of phytate) is reported as “significant inhibiting effect”.
In the case of `[Zn+2]` [Zn^2+], the “inhibiting effect on precipitation” value ([1]; 0.038 μM of Zn^2+) is reported as “no inhibiting effect” and the “inhibiting effect on precipitation” value ([2]; 0.3 μM of Zn^2+) is reported as “no inhibiting effect; also recorded: does not show any inhibiting effect”.
